According to patent US20230192764A1, “NOVEL DOPAMINE PRECURSORS” (Yissum Research Development Company of the Hebrew …, priority 2018, published 2023):
“And” between values parts separate entries of the source, which are not always exact repeats. Equal entries are not always repeated.

Tests used:
[1] = test system: Rotenone -induced model of Parkinson's disease (PD) in rats; experiment: Rat beam walk test, rotenone model; type: in vivo, Sprague Dawley rats; conditions: for beam end time: individual rat, listed as SDA
Procedure: (§1) 1-SD (Rotenone + SD); 2 - SDA (Rotenone + SDA); 3 - Control (Rotenone); 4 -Naive. The experimental groups were comprised of 6 animals for treated groups (1-3) and 2 animals in naive group (4). Rotenone was administrated 3.0 mg/kg intraperitoneally (IP) once a day in the morning (days 1-9). SD 33 mg/kg and SDA 33 mg/kg were administrated intraperitoneally once a day in the afternoon (days 1-9).
(§2) Rearing behavior, rotarod and beam walk tests were performed before initiation of treatment (day 0) as well as on days 4, 8 and 10 of the experiment.
(§3) IP administration: Rotenone was administrated to groups 1-3. Rotenone was injected intraperitoneally at a dose 3.0 mg/kg once a day in the morning (days 1-9). SD and SDA was administrated both at a dose of 33 mg/kg and were injected intraperitoneally once a day in the afternoon (days 1-9). Group number 4 was untreated, and remained as a naive group.
Animals were gently placed on 1 m long narrow aluminum beam facing one of the ends and allowed to walk to the end of the beam.

ERK1/2 phosphorylation = experiment: AuF-induced phosphorylation of ERK1/2 in PC12 cells, western blot; type: cell-based; conditions: 10 µM AuF, normalized to total ERK2, read-out: EC50, lowering of AuF induced activation of ERK1/2
Procedure: Cells were treated with 10 µM AuF with or without SDA-341. Phosphorylation was determined by western blot analysis (FIG. 6A). The amount of each band was quantitated by densitometry (FIG. 6B) and plotted with a linear regression program normalized to total ERK2 (FIG. 6C).
The ability of SDA-341 to lower AuF induced activation of ERK1/2 in PC12 cells with the corresponding anti ERK1/2 and ERK2 antibodies was also tested, as shown in FIG. 6. Calculated EC50=80µM.

[2] = test system: Rotenone -induced model of Parkinson's disease (PD) in rats; experiment: Rat rearing behavior (cylinder) test, rotenone model; type: in vivo, Sprague Dawley rats; conditions: for Cylinder rise and touch (number of rears in 2 min): individual rat, listed as SDA
Procedure: as §1, §2, §3
Animals were placed in a clear glass cylinder (40 cm high and 20 cm diameter) and number of rears in 2 min was observed. Rear was considered as animals raised their hands above the shoulder and made contact with the wall of cylinder with their forelimb.

JNK phosphorylation = experiment: AuF-induced phosphorylation of JNK in SH-SY5Y cells, western blot; type: cell-based, human
Procedure: SH-SY5Y cells were treated with 10 µM AuF with or without SD-444. Phosphorylation was determined by western blot analysis. The amount of each band was quantitated by densitometry and plotted with a linear regression program normalized to total JNK.
In the assay, twenty to thirty micrograms of protein samples were loaded on 10-12% SDS-PAGE gels. The proteins were then transferred electrophoretically to nitrocellulose (Whatman, Germany). The blots were blocked by incubation for 1 h at RT in TBS-T (25 mM Tris-HCl pH 7.4, 0.9% NaCl and 0.02% Tween-20) with 4% Difco skim milk (BD, USA), and incubated over-night at 4° C. with the primary antibody: p-p38^MAPK (Thr180/Tyr182), rabbit mAb; p38, rabbit Ab.
In the assay, twenty to thirty micrograms of protein samples were loaded on 10-12% SDS-PAGE gels. The proteins were then transferred electrophoretically to nitrocellulose (Whatman, Germany). The blots were blocked by incubation for 1h at RT in TBS-T (25 mM Tris-HCl pH 7.4, 0.9% NaCl and 0.02% Tween-20) with 4% Difco skim milk (BD, USA), and incubated over-night at 4° C. with the primary antibody: p-JNK^MAPK, and β-catenin.

[3] = test system: human neuroblastoma cells (SH-SY5Y); experiment: Viability of SH-SY5Y cells after auranofin (AuF) challenge, methylene blue staining; type: cell-based; conditions: SH-SY5Y pre-treated with 5 µM AuF 30 min, washed, compound added, viability 24 h later
Procedure: Viability of cells pre-treated with 5 µM AuF for 30 min, washed and later exposed to increasing concentrations of SD-444, was determined 24 h later.
A) The anti-apoptotic activity of SD-444 was tested on human neuronal cells SH-SY5Y. The cells were challenged by auranofin (AuF) that induces cellular stress by selectively blocking the thioredoxin reductase activity.
SH-SY5Y cells were plated on 96-well plates and treated with AuF in different concentrations for 30 min. Then the cells were washed with PBS and treated as indicated. Twenty-four hours later, the cells were fixed with glutaraldehyde in final concentration of 0.5% for 10 min. Cells were washed 3 times with DDW dried overnight, and washed once with borate buffer (0.1 M, pH 8.5). The fixed cells were stained with 200 µl of 1% methylene blue dissolved in borate buffer for 1 h. After extensive washing and drying, the color was extracted with 200 µl of 0.1 M HCl for 1 h at 37° C. and absorbance was read in spectrophotometer at 630 nm.

[4] = test system: Rotenone -induced model of Parkinson's disease (PD) in rats; experiment: Rotarod behavior assay, rotenone model; type: in vivo, Sprague Dawley rats; conditions: for R.R (rotarod): individual rat, listed as SDA
Procedure: as §1, §2, §3
The test was used to evaluate motor coordination and balance. Apparatus was set to accelerate from 4 to 40 rpm in 300 s, and animals from same cage are placed in separate lanes on rod initially rotating at 4 rpm.

[5] = average n=6, day 0 (before treatment)
[6] = day 0 (before treatment), rotenone 3 mg/kg + compound 33 mg/kg IP
[7] = rats, rotenone 3.0 mg/kg IP + compound 33 mg/kg IP, days 1-9

`CC(=O)NC(CS)C(=O)NC(Cc1cccc(O)c1O)C(N)=O` (stereo not shown) [SDA-341, Acetyle-Cys-2,3 dihydroxyphenylalanine-amide] was tested, and the “beam end time, group average” value [1, 5] was 9.50 s, the “beam end time, group average” value ([1]; average n=6, day 4) was 17.50 s and the “beam end time, group average” value ([1]; average n=6, day 8) was 25.67 s. The “beam end time, group average” value ([1]; average n=6, day 10) was 20.33 s, the beam end time [1, 6] was 7 s and 3 s and 10 s and 8 s and 12 s and 17 s and the beam end time ([1]; day 4) was 12 s and 32 s and 14 s and 21 s and 10 s and 16 s. For the same compound, the beam end time ([1]; day 8) was 16 s and 23 s and 52 s and 18 s and 19 s and 26 s, the beam end time ([1]; day 10) was 22 s and 17 s and 34 s and 10 s and 21 s and 18 s and the “Walk-beam test, reversal of rotenone induced imbalance” value [1, 7] was “very effective”. For the same compound, the EC50 (ERK1/2 phosphorylation) was 80 µM, the “Cylinder rise and touch, group average” value [2, 5] was 12.83 and the “Cylinder rise and touch, group average” value ([2]; average n=6, day 4) was 12.67. The “Cylinder rise and touch, group average” value ([2]; average n=6, day 8) was 14.83, the “Cylinder rise and touch, group average” value ([2]; average n=6, day 10) was 12.50 and the “Cylinder rise and touch (number of rears in 2 min)” value [2, 6] was 18 (2×) and 9 and 12 (2×) and 8. For the same compound, the “Cylinder rise and touch (number of rears in 2 min)” value ([2]; day 4) was 14 (2×) and 12 and 11 and 15 and 10, the “Cylinder rise and touch (number of rears in 2 min)” value ([2]; day 8) was 15 and 19 (2×) and 8 and 12 and 16 and the “Cylinder rise and touch (number of rears in 2 min)” value ([2]; day 10) was 11 and 14 (2×) and 9 and 10 and 17. The “Cylinder test, maintaining locomotor activity in Rotenone-treated rats” value [2, 7] was “very effective”, the EC50 (JNK phosphorylation; 10 µM AuF, western blot densitometry, read-out: EC50 in reduction of JNK activation) was 100 µM and the “JNK phosphorylation (AuF-triggered)” value (JNK phosphorylation; summary statement) was “inhibit”. For the same compound, the “neuronal cell-viability after AuF” value [3] was “increase viability”, the “R.R (rotarod), group average” value [4, 5] was 285.17 s and the “R.R (rotarod), group average” value ([4]; average n=6, day 4) was 286.33 s. The “R.R (rotarod), group average” value ([4]; average n=6, day 8) was 266.33 s, the “R.R (rotarod), group average” value ([4]; average n=6, day 10) was 227.00 s and the “R.R (rotarod)” value [4, 6] was 278 sec and 300 sec (2×) and 269 sec and 290 sec. For the same compound, the “R.R (rotarod)” value ([4]; day 4) was 298 sec and 274 sec and 263 sec and 300 sec (2×) and 283 sec, the “R.R (rotarod)” value ([4]; day 8) was 281 s and 249 s and 234 s and 277 s and 268 s and 289 s and the “R.R (rotarod)” value ([4]; day 10) was 270 s and 195 s and 123 s and 260 s and 243 s and 271 s. For the same compound, the “rotarod test, motor dysregulation mediated by rotenone” value [4, 7] was “significantly reversed”.
